Source: patent US7589094B2, “N- (3-amino-2-hydroxy-propyl) substituted alkylamide compounds” (Elan Pharmaceuticals, Inc., priority 2001, dated 2009)

## CCCC1CCC(CC(=O)N[C@@H](Cc2cc(F)cc(F)c2)[C@H](O)CNCc2cccc(CC)c2)CC1=O (stereo partly drawn) [Compound 213, N-{(1S,2R)-1-(3,5-difluorobenzyl)-3-[(3-ethylbenzyl)amino]-2-hydroxypropyl}-2-(3-oxo-4-propylcyclohexyl)acetamide]
  melting point: 52 to 54 °C

## CCc1cccc(CNC[C@@H](O)[C@H](Cc2cc(F)cc(F)c2)NC(=O)CC2CCCC(=O)C2)c1 (stereo partly drawn) [Compound 214, N-{(1S,2R)-1-(3,5-difluorobenzyl)-3-[(3-ethylbenzyl)amino]-2-hydroxypropyl}-2-(3-oxocyclohexyl)acetamide]
  melting point: 139.5 to 149.8 °C
